Laboratory results reported in patent publication US20240374546A1, “USES AND METHODS FOR PROMOTING INCREASED MITOCHONDRIAL MASS AND FUNCTION” (Brightseed, Inc., priority 2022, published 2024).
“Also recorded” adds a separate entry of the source.

What was measured:
PPARGC1A mRNA [1] = assay: qPCR mouse liver, PPARGC1A mRNA; type: in vivo; conditions: ten weeks of oral NCT
Method: (§1) Total RNA was isolated from liver tissues and primary human hepatocytes using Trizol (Invitrogen). cDNA was amplified using 3 μg of total RNA using qScript cDNA SuperMix (Quanta BioSciences, Beverly, MA, USA). Quantitative real time PCR (RT-PCR) analysis was performed using SYBR® Select Master Mix (Applied Biosystems) and an ABI 7900HT thermal cycler (Applied Biosystems, Thermo Fisher Scientific). Ct values were normalized to 18s rRNA and are expressed as fold change over samples from mice fed NC or cultured human hepatocytes without NCT.

SDHA mRNA = assay: qPCR primary human hepatocytes, SDHA mRNA; type: cell-based; conditions: NCT 5, 15, 40 μM
Method: (§2) Experiments with primary human hepatocytes were performed by CN-Bio (Cambridge, UK). Briefly, primary human hepatocytes (PHHs), human Kupffer cells (HKs) and human stellate cells (HSCs) were seeded onto CN-Bio's PhysioMimix LC12 MPS culture plates at 6×10^5 cells for PHHs and 6×10^4 cells for HKs and HSCs in 1.6 ml of CN-Bio's HEP-lean media with 5% FCS. Throughout the experiment the cells were maintained at a flow rate of 1 μl/s. After 24 hours (Day 1) of seeding, the media was changed to HEP-lean media and the cells were incubated until day 4 to allow the cells to form microtissues. At day 4 post seeding, media was changed to HEP-fat media and treated with DMSO or NCT (5, 15, 40 μM). Media was replaced on days 6 and 8. Cells were harvested on day 10 for RNA extraction and culture media was collected for ELISA analysis.
as §1

PPARGC1A mRNA [2] = assay: qPCR primary human hepatocytes, PPARGC1A mRNA; type: cell-based; conditions: NCT 5, 15, 40 μM
Method: as §2, §1

Sirtuin1 mRNA = assay: qPCR primary human hepatocytes, Sirtuin1 mRNA; type: cell-based; conditions: NCT 5, 15, 40 μM
Method: as §2, §1

Sirtuin3 mRNA = assay: qPCR primary human hepatocytes, Sirtuin3 mRNA; type: cell-based; conditions: NCT 5, 15, 40 μM
Method: as §2, §1

[3] = tested on: mitochondrial DNA (ND1, 16S rRNA); assay: Mitochondrial DNA analysis in mouse liver; type: in vivo; conditions: normalized with HK2
Method: Quantification of mtDNA was performed as described (BCurr Protoc Mouse Biol 2017; 7:47-54). Snap frozen mouse liver was homogenized and total cellular DNA was extracted with a QIAamp DNA kit (Qiagen) followed b PCR with the primers below: […]

T6PNE cells = assay: Nitric oxide assay, T6PNE cells treated with palmitate; type: cell-based; conditions: palmitate plus 15 μM NCT, 3 days, normalized to protein
Method: T6PNE cells were maintained in RPMI (5.5 mM glucose, Corning) supplemented with 10% fetal bovine serum (FBS, Sigma-Aldrich) and 1% penicillin-streptomycin (pen-strep, Gibco) in 5% CO2 at 37° C. Cells were treated with […] palmitate plus 0 or 15 μM NCT for 3 days in 10 cm plates and harvested with 500 μl PBS. For tissue specimens, snap frozen mouse liver was weighed and homogenized with PBS. NO was measured with the QuantiChrom Nitric Oxide Assay kit (D2NO-100, BioAssay Systems). Homogenized samples (150 μl) were processed for deproteination with 8 μl ZnSO4 and 8 μl NaOH. For normalization, an aliquot of samples from T6PNE cells was taken for BCA assay before deproteination. Samples and standard from kit incubated with reagents for 20 min at 60° C. and measured OD 540 nm.
Palmitate (150 mM) (Sigma-Aldrich) was prepared in 50% ethanol and precomplexed with 15% fatty acid-free BSA (Research Organics, Cleveland, OH, USA) in a 37° C. water shaker. […] precomplexed palmitate was used as a 12 mM stock solution for all assays with a final concentration of 0.12 mM palmitate in cell culture medium.

[4] = Liver profile analysis of blood (VetScan); type: in vivo, mouse
Method: Mice were anesthetized and 100 μL of whole blood was collected via retro-orbital bleeding in lithium heparin blood collection tubes and transferred to single use VetScan mammalian liver profile reagent rotors. The levels of multiple analytes, including Alkaline Phosphatase (ALP), Alanine Aminotransferase (ALT), Gamma Glutamyl Transferase (GGT), Bile Acids (BA), TBIL (Total Bilirubin), Albumin (ALB), Blood Urea Nitrogen […] (BUN), Total Cholesterol (CHOL) were quantified using a VetScan VS2 Chemistry Analyzer (Abaxis North America, USA).

[5] = Blood count analysis (Hemavet); type: in vivo, mouse; conditions: HFD versus HFD+NCT
Method: Mice were anesthetized and 20 μL of whole blood was collected via retro-orbital bleeding in lithium heparin blood collection tubes and 20 different hematologic parameters were measured using a Hemavet 950 FS blood count analyzer (Drew Scientific Group).

[6] = Oral gavage delivery of NCT to DIO mice; type: in vivo, mouse
Method: 12-week-old C57BL/6J DIO male mice were purchased from Jackson laboratory (cat #380050) and were fed with high fat diet (Research Diets, cat #D12492 60 kcal % fat). […] 14 week old mice were injected subcutaneously using sterile insulin syringes filled with DMSO or NCT (200 mg/kg of mouse body weight) bid for 2 weeks. For oral gavage, 14-week-old C57BL/6J DIO male mice were fed by oral gavage using a feeding needle attached to a sterile 1 ml syringe filled with 200 μL of methyl cellulose (MC, vehicle control) or 200 μL of NCT (200 mg/kg) dissolved in methyl cellulose twice a day for 2 weeks. […] For analysis all mice were sacrificed after 2 weeks of treatment.

Microsomal stability = type: in vitro ADME; conditions: human microsomes compared with rodent

## O=C(/C=C/c1ccc(O)c(O)c1)NCCc1ccc(O)cc1 [NCT, N-transcaffeoyltyramine]
PPARGC1A mRNA [1]
  PPARGC1A mRNA in mouse liver: increased
SDHA mRNA
  SDHA mRNA in primary human hepatocytes: increased
PPARGC1A mRNA [2]
  PPARGC1A mRNA in primary human hepatocytes: increased
Sirtuin1 mRNA
  Sirtuin1 mRNA in primary human hepatocytes: significant effect
Sirtuin3 mRNA
  Sirtuin3 mRNA in primary human hepatocytes: significant effect
[3]
  mitochondrial DNA, 16S rRNA: significant increase
  mitochondrial DNA, ND1: significant increase
T6PNE cells
  nitric oxide (NO) in cultured cells treated with palmitate: decreased
[4]; HFD versus HFD+NCT
  other components of the liver profile panel: no difference
[4]; HFD+NCT vs HFD
  blood ALP: unchanged
  blood ALT level: reduced; also recorded: significantly decreased
[5]
  hematological analysis: no difference
[6]; 200 mg/kg bid, 2 weeks, vs methyl cellulose
  liver color after oral gavage NCT: No difference in liver color
[6]; 200 mg/kg in methyl cellulose, 2 doses per day, 2 weeks
  outcome of oral gavage delivery: compound precipitation
[6]; following oral gavage 200 mg/kg bid
  NCT compound level in serum and stool: present in stool but not serum
Microsomal stability
  microsomal stability, human versus rodent microsomes: much more stable
